pIC50: −log10 of the molar value. Read-outs that look alike come from different tables or passages of the source.
Columns and labels:
Mice PK study = format: in vivo; settings: plasma, CD-1 mouse, po, 25 mg/kg
Description: The pharmacokinetics of compounds were evaluated in CD-1 mouse via Intravenous and Oral Administration. The IV dose was administered as a slow bolus in the Jugular vein, and oral doses were administered by gavage. The formulation for IV dosing is 5% DMSO in 20% HPBCD in water, and the PO formulation is 2.5% DMSO, 10% EtOH, 20% Cremphor EL, 67.5% D5W. The PK time point for the IV arm was 5, 15, 30 min, 1, 2, 4, 6, 8, 12, 24 hours post dose, and for PO arm was 15, 30 min, 1, 2, 4, 6, 8, 12, 24 hours post dose. Approximately 0.03 mL blood was collected at each time point. Blood of each sample was transferred into plastic micro centrifuge tubes containing EDTA-K2 and plasma was collected within 15 min by centrifugation at 4000 g for 5 minutes in a 4° C. centrifuge. Plasma samples were stored in polypropylene tubes. The samples were stored in a freezer at −75±15° C. prior to analysis. Concentrations of compounds in the plasma samples were analyzed using a LC-MS/MS method. WinNonlin (Phoenix™, version 6.1) or other similar software was used for pharmacokinetic calculations. The following pharmacokinetic parameters were calculated, whenever possible from the plasma concentration versus time data: IV administration: C0, CL, Vd, T1/2, AUCinf, AUClast, MRT, Number of Points for Regression; PO administration: Cmax, Tmax, T1/2, AUCinf, AUClast, F %, Number of Points for Regression. The pharmacokinetic data was described using descriptive statistics such as mean, standard deviation. Additional pharmacokinetic or statistical analysis was performed at the discretion of the contributing scientist, and was documented in the data summary. For comparison purpose, the PK results of oral dosing of po, 25 mg/kg of Acalbrutinib, a FDA approved BTK inhibitor, were obtained using the same methods and shown in the Table below.

[1] = system: liver cancer cell line HepG2; experiment: HepG2 in vitro liver toxicity assay (ATPlite); format: cell-based; settings: another experiment, about 72 hours incubation, read-out: HepG2 IC50 (another experiment)
Description: Cell antiproliferation is assayed by PerkinElmer ATPlite™ Luminescence Assay System. Briefly, the liver cancer cell line HepG2 are plated at a density of about 1×10^4 cells per well in Costar 96-well plates, and are incubated with different concentrations of compounds for about 72 hours in medium supplemented with 5% FBS. One lyophilized substrate solution vial is then reconstituted by adding 5 mL of substrate buffer solution, and is agitated gently until the solution is homogeneous. About 50 μL of mammalian cell lysis solution is added to 100 μL of cell suspension per well of a microplate, and the plate is shaken for about five minutes in an orbital shaker at −700 rpm. This procedure is used to lyse the cells and to stabilize the ATP. Next, 50 μL substrate solution is added to the wells and microplate is shaken for five minutes in an orbital shaker at −700 rpm. Finally, the luminescence is measured by a PerkinElmer TopCount® Microplate Scintillation Counter. Such assays, carried out with a range of doses of test compounds, allow the determination of the cellular anti-antiproliferative IC50 of the compounds of the present invention.

WT BTK [2] = target: T1, WT BTK (Homo sapiens, UniProt Q06187); experiment: In vitro dialysis assay (irreversibility assay), WT BTK; format: biochemical; settings: reversible or irreversible/covalent inhibition after 24 h dialysis
Outline: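 Compound-BTK complex was dialyzed 24 hr against […] (cumulative factor >160,000×). Residual activity was then […] and 1 mM substrate peptide and compared with non-dialyzed samples. Buffer: 100 mM HEPES pH 7.5, 5 mM MgCl2, 1 mM DTT, BSA, Triton X-100.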

C4815S BTK enzyme = C4815S BTK enzyme (Homo sapiens, UniProt Q06187, C481S); experiment: Reversibility of binding to C481S BTK enzyme; format: biochemical; settings: Cysteine residue not available for covalent binding
C481S Btk = C481S Btk (Homo sapiens, UniProt Q06187, C481S); experiment: Caliper-based kinase assay, C481S BTK; format: biochemical; settings: 0.5 nM enzyme, ATP 16 μM, room temperature 3 h; read-out: C481S BTK IC50 (nM) (reversible inhibition)
Description: (§1) A Caliper-based kinase assay (Caliper Life Sciences, Hopkinton, Mass.) was used to measure inhibition of WT and […] Btk kinase activity of a compound of the present disclosure. […] The reaction was then terminated with EDTA, final concentration 20 mM and the phosphorylated reaction product was quantified on a Caliper Desktop Profiler (Caliper LabChip 3000).

WT BTK [3] = target: T1, WT BTK; experiment: Caliper-based kinase assay, WT BTK; format: biochemical; settings: 0.5 nM enzyme, ATP 16 μM, room temperature 3 h; read-out: WT BTK IC50 (nM) (irreversible inhibition)
Description: as §1

[4] = system: basophil activation, B cell receptor activation, and constitutive p-BTK activity in whole blood lysates; settings: read-out: IC50s for basophil activation, B cell receptor activation, and constitutive p-BTK activity; cited from earlier work
[5] = rats, treatment for longer than 7 days; cited from earlier work
[6] = Phase I clinical trials, formulations containing GDC-0853; cited from earlier work
[7] = mice, even at higher doses; cited from earlier work
[8] = dogs, even at higher doses; cited from earlier work

T1 sequence (Q06187 whole entry): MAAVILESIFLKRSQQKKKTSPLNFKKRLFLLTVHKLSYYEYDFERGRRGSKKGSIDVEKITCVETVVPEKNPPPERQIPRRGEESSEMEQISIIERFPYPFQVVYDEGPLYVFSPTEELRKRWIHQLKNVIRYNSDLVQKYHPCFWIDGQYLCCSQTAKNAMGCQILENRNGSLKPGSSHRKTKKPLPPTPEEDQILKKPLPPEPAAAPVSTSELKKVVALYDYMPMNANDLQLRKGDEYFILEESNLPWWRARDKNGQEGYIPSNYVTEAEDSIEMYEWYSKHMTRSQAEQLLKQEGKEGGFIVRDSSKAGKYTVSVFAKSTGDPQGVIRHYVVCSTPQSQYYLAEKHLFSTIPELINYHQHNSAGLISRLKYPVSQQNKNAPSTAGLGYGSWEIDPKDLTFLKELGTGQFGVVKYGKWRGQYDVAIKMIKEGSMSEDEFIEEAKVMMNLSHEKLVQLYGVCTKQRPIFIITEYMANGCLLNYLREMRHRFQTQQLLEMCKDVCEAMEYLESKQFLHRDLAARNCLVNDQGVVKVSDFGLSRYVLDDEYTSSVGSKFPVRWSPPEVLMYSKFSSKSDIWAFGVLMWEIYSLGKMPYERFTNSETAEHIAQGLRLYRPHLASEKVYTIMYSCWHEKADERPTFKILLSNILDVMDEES
C481S Btk, sequence (Q06187 whole entry C481S): as the sequence (Q06187 whole entry) above, with C481S counted along it
C4815S BTK enzyme, sequence (Q06187 whole entry C481S): as the sequence (Q06187 whole entry) above, with C481S counted along it

Compound | Conclusion (WT BTK) (WT BTK [2]) | IC50 (C481S Btk) [nM] | IC50 (WT BTK [3]) [nM] | also measured
CC#CC(=O)N1CCC[C@H]1c1nc(-c2ccc(C(=O)Nc3ccccn3)cc2)c2c(N)nccn12 [Acalabrutinib, reference compound] |  |  |  | AUC (Mice PK study): 1450 ng·h/mL; half-life (Mice PK study; read-out: t ½ (converted)): 1.1 h; pIC50 ([1]; Homo sapiens, HepG2): < 4.40
C=CC(=O)Nc1cc(Nc2nc(-c3ccnc(N4CCn5c(cc6c5CC(C)(C)C6)C4=O)c3CO)cn(C)c2=O)ccc1N1CCN(C)CC1 [Example 2, N-(5-((6-(2-(7,7-dimethyl-1-oxo-1,3,4,6,7,8-hexahydro-2H-cyclopenta[4,5]pyrrolo[1,2-a]pyrazin-2-yl)-3-(hydroxymethyl)pyridin-4-yl)-4-methyl-3-oxo-3,4-dihydropyrazin-2-yl)amino)-2-(4-methylpiperazin-1-yl)phenyl)acrylamide] | irreversible/covalent inhibition |  |  | Mode of binding to C481S BTK (C4815S BTK enzyme): reversibly bind
C=CC(=O)Nc1cc(Nc2nc(-c3ccnc(N4CCn5c(cc6c5CC(C)(C)C6)C4=O)c3CO)cn(C)c2=O)ccc1C1C(=O)N(C)CCN1C1COC1 (centres unmarked) [Example 41] | Irreversible/covalent inhibition | 0.61 | 0.27 | 
C=CC(=O)Nc1cc(Nc2nc(-c3ccnc(N4CCn5c(cc6c5CC(C)(C)C6)C4=O)c3CO)cn(C)c2=O)ccc1C1CN(C2COC2)CC(=O)N1C (centres unmarked) [Example 42, N-(5-[[6-(2-[4,4-dimethyl-9-oxo-1,10-diazatricyclo[6.4.0.0^[2,6]]dodeca-2(6),7-dien-10-yl]-3-(hydroxymethyl)pyri-din-4-yl)-4-methyl-3-oxopyrazin-2-yl]amino]-2-[1-methyl-4-(oxetan-3-yl)-6-oxopiperazin-2-yl]phenyl)prop-2-enamide] | Irreversible/covalent inhibition | 0.3 | 0.24 | 
C=CC(=O)Nc1cc(Nc2nc(-c3ccnc(N4CCn5c(cc6c5CC(C)(C)C6)C4=O)c3CO)cn(C)c2=O)ccc1C1CN(C)C(=O)CN1C1COC1 (centres unmarked) [Example 43] | Irreversible/covalent inhibition | 0.5 | 0.35 | 
C=CC(=O)Nc1cc(Nc2nc(-c3ccnc(N4CCc5c(sc6c5CCCC6)C4=O)c3CO)cn(C)c2=O)ccc1N1CCN(C2CCOCC2)C[C@@H]1C [Example 56, N-[5-([6-[3-(hydroxymethyl)-2-[6-oxo-8-thia-5-azatricyclo[7.4.0.0^[2,7]]trideca-1(9), 2(7)-dien-5-yl]pyridin-4-yl]-4-methyl-3-oxopyrazin-2-yl]amino)-2-[(2S)-2-methyl-4-(oxan-4-yl)piperazin-1-yl]phenyl]prop-2-enamide] | Irreversible/covalent inhibition |  | 0.058 | pIC50 [1]: 4.59
C[C@H]1CN(C2COC2)CCN1c1ccc(Nc2cc(-c3ccnc(N4CCn5c(cc6c5CC(C)(C)C6)C4=O)c3CO)cn(C)c2=O)nc1 [GDC-0853] | Reversible |  |  | pIC50 [4]: 8.05 to 8.70; Pancreatic toxicity [5]: pancreatic toxicity; Tolerability [6]: well-tolerated; Pancreatic toxicity [7]: does not occur; Pancreatic toxicity [8]: does not occur

Source: US20220363689A1, “INHIBITOR OF BTK AND MUTANTS THEREOF” (Newave Pharmaceutical Inc., priority 2019, published 2022)
